Experiments:
[1] = biological target: T1, 5-hydroxytryptamine receptor 2A (Rattus norvegicus, UniProt P14842); experiment: Binding affinity to rat frontal cortex 5-HT2A assessed as inhibition constant; assay type: tissue-based
[2] = biological target: T1, 5-hydroxytryptamine receptor 2A; experiment: Binding affinity to rat frontal cortex 5-HT2A assessed as dissociation constant; assay type: tissue-based
[3] = Drug uptake in cat striatum at 2.5 mCi, iv measured upto 90 mins by PET imaging; assay type: ADME, organism-based, Felis catus; settings: in vivo, 1.5 h
[4] = Drug uptake in Cynomolgus monkey striatum at 4 mCi, iv measured upto 90 mins by PET imaging; assay type: ADME, organism-based, Macaca fascicularis; settings: in vivo, 1.5 h
[5] = biological target: 5-hydroxytryptamine receptor 2B (Homo sapiens, UniProt P41595)
Chain of 5-hydroxytryptamine receptor 2B (P41595 whole entry): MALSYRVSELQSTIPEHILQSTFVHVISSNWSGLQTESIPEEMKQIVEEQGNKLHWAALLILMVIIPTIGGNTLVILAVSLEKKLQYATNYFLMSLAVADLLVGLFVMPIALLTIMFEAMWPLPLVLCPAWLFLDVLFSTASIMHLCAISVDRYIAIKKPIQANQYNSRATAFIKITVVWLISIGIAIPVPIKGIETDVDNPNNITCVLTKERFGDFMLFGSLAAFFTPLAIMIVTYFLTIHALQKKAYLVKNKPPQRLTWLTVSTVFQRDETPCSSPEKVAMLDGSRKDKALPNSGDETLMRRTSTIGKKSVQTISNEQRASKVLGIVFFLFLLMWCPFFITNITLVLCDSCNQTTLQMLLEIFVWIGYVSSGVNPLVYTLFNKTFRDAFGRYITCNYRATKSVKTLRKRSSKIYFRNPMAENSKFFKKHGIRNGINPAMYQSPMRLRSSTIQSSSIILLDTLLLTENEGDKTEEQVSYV

[6] = biological target: 5-hydroxytryptamine receptor 1B (Homo sapiens, UniProt P28222)
Chain of 5-hydroxytryptamine receptor 1B (P28222 whole entry): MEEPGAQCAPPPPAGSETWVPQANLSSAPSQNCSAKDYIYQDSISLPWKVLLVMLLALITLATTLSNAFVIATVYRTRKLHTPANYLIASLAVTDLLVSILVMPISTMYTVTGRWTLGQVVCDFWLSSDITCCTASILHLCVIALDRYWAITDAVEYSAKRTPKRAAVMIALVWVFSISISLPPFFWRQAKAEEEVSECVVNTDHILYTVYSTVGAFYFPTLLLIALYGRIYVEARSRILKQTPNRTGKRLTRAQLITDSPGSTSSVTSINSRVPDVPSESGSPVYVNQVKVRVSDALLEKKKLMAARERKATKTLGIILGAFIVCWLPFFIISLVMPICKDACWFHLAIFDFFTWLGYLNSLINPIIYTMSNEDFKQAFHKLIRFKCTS

[7] = biological target: T2, 5-hydroxytryptamine receptor 1A (Homo sapiens, UniProt P08908)
T2 sequence (P08908 whole entry): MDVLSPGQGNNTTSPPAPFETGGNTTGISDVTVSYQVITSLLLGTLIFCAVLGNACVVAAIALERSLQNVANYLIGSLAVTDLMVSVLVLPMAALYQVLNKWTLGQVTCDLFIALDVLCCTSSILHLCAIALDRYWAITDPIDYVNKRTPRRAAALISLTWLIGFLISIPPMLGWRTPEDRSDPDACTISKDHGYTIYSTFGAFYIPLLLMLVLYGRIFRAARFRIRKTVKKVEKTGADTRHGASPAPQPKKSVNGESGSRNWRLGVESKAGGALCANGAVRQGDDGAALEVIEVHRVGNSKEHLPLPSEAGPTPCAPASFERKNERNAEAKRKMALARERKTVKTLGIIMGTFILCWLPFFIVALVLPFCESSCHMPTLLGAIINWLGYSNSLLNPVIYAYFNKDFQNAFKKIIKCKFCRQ

[8] = biological target: 5-hydroxytryptamine receptor 5A (Homo sapiens, UniProt P47898); experiment: Binding affinity to 5-HT5A receptor (unknown origin) assessed as inhibition constant
Chain of 5-hydroxytryptamine receptor 5A (P47898 whole entry): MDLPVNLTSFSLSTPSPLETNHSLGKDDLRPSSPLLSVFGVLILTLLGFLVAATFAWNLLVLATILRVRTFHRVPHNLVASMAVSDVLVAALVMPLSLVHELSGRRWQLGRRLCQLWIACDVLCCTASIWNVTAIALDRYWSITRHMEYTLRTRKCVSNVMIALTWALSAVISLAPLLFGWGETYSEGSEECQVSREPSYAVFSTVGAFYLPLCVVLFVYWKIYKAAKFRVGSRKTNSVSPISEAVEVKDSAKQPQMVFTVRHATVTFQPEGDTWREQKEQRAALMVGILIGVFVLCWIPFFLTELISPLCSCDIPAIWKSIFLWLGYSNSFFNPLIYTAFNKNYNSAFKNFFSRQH

[9] = biological target: T3, 5-hydroxytryptamine receptor 1D (Homo sapiens, UniProt P28221); experiment: Binding affinity to 5-HT1D (unknown origin) assessed as inhibition constant
T3 sequence (P28221 whole entry): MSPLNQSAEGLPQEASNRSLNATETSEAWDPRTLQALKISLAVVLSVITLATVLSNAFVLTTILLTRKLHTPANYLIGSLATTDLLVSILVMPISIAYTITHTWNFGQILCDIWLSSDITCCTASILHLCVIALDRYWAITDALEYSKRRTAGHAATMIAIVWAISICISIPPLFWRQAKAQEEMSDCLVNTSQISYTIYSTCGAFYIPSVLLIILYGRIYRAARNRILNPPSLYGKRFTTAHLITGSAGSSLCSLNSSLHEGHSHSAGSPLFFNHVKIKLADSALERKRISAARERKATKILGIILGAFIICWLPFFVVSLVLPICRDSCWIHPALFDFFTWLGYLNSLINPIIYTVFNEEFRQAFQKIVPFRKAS

[10] = biological target: T4, 5-hydroxytryptamine receptor 7 (Homo sapiens, UniProt P34969)
T4 sequence (P34969 whole entry): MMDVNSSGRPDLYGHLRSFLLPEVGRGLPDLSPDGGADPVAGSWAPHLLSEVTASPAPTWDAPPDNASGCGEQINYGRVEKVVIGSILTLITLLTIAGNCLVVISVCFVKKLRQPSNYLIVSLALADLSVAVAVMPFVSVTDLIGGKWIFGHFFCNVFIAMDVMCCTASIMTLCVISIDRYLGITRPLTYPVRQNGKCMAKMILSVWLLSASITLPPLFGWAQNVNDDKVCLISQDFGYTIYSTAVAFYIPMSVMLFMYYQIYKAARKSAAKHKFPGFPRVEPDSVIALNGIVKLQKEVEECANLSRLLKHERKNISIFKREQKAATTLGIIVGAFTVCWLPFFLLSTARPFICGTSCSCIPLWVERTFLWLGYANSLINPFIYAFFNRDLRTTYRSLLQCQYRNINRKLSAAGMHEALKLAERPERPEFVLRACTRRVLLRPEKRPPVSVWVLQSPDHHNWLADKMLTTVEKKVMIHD

[11] = biological target: T5, 5-hydroxytryptamine receptor 1F (Homo sapiens, UniProt P30939); experiment: Binding affinity to human 5-HT1F assessed as inhibition constant incubated for 10 mins by radioligand binding assay
T5 sequence (P30939 whole entry): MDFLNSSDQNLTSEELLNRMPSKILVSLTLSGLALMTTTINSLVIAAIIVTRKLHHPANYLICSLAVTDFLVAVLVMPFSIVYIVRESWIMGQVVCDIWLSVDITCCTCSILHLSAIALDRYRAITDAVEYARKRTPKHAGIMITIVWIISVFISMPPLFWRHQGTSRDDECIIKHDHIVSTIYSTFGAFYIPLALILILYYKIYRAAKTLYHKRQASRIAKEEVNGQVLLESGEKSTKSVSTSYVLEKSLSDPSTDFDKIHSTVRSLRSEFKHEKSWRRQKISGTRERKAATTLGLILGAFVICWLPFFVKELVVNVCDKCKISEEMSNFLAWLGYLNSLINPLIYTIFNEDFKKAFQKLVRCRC

[12] = biological target: T6, 5-hydroxytryptamine receptor 2C (Homo sapiens, UniProt P28335)
T6 sequence (P28335 whole entry): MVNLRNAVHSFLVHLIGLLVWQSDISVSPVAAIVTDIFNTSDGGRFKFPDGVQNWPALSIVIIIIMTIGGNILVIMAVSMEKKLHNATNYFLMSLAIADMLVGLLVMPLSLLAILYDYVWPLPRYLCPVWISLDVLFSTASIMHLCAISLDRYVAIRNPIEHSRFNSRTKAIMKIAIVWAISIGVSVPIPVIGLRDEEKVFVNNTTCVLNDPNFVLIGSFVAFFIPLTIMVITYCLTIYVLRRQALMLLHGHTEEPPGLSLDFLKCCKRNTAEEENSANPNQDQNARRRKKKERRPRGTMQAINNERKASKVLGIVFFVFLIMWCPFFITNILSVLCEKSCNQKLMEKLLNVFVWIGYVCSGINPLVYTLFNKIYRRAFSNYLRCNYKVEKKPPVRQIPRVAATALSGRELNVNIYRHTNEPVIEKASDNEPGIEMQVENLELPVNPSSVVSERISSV

[13] = biological target: Serotonin 3 (5-HT3) receptor; experiment: Binding affinity to 5-HT3 receptor (unknown origin) assessed as inhibition constant; assay type: protein-complex assay, Homo sapiens
[14] = Drug uptake in human brain; assay type: ADME, tissue-based
[15] = biological target: 5-hydroxytryptamine receptor 4 (Homo sapiens, UniProt Q13639); experiment: Binding affinity to 5-HT4 receptor (unknown origin) assessed as inhibition constant
Chain of 5-hydroxytryptamine receptor 4 (Q13639 whole entry): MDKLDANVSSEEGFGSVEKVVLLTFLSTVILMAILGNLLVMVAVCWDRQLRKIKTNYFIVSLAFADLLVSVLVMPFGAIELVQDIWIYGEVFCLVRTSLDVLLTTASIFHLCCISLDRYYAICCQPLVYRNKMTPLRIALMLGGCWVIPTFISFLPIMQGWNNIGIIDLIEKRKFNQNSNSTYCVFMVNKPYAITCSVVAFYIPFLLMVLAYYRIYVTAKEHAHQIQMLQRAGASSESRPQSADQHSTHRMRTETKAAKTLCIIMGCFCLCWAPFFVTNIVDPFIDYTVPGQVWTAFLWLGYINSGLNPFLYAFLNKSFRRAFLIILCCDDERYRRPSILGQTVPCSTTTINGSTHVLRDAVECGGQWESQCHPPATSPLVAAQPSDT

[16] = biological target: T3, 5-hydroxytryptamine receptor 1D; experiment: Binding affinity to human 5-HT1D expressed in CHO cells assessed as inhibition constant incubated for 1 hr by Cheng-Prusoff equation analysis; assay type: cell-based
[17] = biological target: T5, 5-hydroxytryptamine receptor 1F; experiment: Binding affinity to human 5-HT1F assessed as inhibition constant
[18] = biological target: Sigma non-opioid intracellular receptor 1 (Homo sapiens, UniProt Q99720); experiment: Binding affinity to sigma 1 receptor (unknown origin) assessed as inhibition constant
Chain of Sigma non-opioid intracellular receptor 1 (Q99720 whole entry): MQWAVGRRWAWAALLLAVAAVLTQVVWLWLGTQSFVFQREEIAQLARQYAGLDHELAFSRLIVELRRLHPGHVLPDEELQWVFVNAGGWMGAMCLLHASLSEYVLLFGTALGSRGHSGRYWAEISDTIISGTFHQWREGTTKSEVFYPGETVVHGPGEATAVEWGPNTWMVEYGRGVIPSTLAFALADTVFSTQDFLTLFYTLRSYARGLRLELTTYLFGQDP

[19] = biological target: T4, 5-hydroxytryptamine receptor 7; experiment: Binding affinity to 5-HT7 receptor (unknown origin) assessed as inhibition constant
[20] = biological target: Sigma intracellular receptor 2 (Homo sapiens, UniProt Q5BJF2); experiment: Binding affinity to sigma 2 receptor (unknown origin) assessed as inhibition constant
Chain of Sigma intracellular receptor 2 (Q5BJF2 whole entry): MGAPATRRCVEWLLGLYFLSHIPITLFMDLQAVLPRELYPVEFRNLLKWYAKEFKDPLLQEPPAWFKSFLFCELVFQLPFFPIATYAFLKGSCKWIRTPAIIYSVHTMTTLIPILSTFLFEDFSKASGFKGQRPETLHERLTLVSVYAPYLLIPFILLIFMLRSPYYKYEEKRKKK

[21] = Ratio of drug uptake in Wistar rat cortex to cerebellum at 10 MBq measured at 30 mins; assay type: ADME, tissue-based; settings: in vivo, 0.5 h
[22] = Drug uptake in Wistar rat frontal cortex assessed as non-displaceable binding potential at 10 MBq measured at 5 to 60 mins; assay type: ADME, tissue-based; settings: in vivo, time 5-60 min
[23] = biological target: 5-hydroxytryptamine receptor 6 (Homo sapiens, UniProt P50406); experiment: Binding affinity to 5-HT6 receptor (unknown origin) assessed as inhibition constant
Chain of 5-hydroxytryptamine receptor 6 (P50406 whole entry): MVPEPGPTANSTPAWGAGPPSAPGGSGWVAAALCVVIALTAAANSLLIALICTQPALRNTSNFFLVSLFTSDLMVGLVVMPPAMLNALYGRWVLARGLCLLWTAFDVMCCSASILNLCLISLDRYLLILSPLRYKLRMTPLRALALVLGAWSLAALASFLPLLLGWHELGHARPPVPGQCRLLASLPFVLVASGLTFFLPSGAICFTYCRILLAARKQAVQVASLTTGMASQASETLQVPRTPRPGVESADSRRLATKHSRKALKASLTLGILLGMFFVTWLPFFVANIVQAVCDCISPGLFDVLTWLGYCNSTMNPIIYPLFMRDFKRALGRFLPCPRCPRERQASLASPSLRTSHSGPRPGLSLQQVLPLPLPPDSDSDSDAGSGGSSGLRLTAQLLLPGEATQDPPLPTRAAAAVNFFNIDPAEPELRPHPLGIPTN

[24] = Drug uptake in pig brain cortex assessed as non-displaceable binding potential; assay type: ADME, tissue-based, Sus scrofa; settings: in vivo
[25] = biological target: 5-hydroxytryptamine receptor 2A (Homo sapiens, UniProt P28223); experiment: Binding affinity to human 5-HT2A assessed as inhibition constant
Chain of 5-hydroxytryptamine receptor 2A (Homo sapiens, UniProt P28223) (P28223 whole entry): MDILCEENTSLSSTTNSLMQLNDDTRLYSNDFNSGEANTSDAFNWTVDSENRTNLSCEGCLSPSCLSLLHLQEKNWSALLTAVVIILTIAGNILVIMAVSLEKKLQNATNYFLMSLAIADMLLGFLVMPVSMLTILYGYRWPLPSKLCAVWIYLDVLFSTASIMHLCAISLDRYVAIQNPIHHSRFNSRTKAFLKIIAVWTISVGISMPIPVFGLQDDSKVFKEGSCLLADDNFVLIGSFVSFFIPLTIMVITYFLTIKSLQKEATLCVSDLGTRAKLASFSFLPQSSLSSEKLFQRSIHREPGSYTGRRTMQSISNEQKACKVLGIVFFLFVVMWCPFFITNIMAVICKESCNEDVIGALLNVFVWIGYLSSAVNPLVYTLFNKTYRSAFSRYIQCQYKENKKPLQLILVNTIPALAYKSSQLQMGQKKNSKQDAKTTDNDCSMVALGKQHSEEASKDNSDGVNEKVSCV

[26] = biological target: T6, 5-hydroxytryptamine receptor 2C; experiment: Binding affinity to human 5-HT2C assessed as inhibition constant
[27] = Drug uptake in pig brain cortex measured at 10 to 20 mins postinjection; assay type: ADME, organism-based, Sus scrofa; settings: in vivo, time 10-20 min

T1 sequence (P14842 whole entry): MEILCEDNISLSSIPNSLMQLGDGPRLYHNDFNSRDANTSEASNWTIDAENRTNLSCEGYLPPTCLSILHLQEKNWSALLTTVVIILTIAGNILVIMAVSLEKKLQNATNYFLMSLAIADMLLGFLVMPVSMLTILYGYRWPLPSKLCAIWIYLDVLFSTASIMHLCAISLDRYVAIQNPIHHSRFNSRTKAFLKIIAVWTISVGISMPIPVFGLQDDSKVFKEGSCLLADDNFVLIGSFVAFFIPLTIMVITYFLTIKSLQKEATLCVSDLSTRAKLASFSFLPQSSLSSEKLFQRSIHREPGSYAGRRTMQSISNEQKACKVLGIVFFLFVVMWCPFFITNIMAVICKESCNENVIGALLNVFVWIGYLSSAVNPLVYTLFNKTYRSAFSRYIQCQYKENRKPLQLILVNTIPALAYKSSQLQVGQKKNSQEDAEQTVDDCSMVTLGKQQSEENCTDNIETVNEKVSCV

CC1(NC(=O)c2ccc(N)cc2)CCN(CCCOc2ccc(F)cc2)CC1
Ki [1]: 0.2 nM
Kd [2]: 0.11 nM

CC(c1cnc2c(N3CCN(C)CC3)cccc2c1)S(=O)(=O)c1ccccc1[18F] (centres undefined)
SUVmax [3]: 4.5
SUVmax [4]: 2.5

CN1CCC(C(=O)c2cccc(NC(=O)c3c(F)cc(F)cc3F)n2)CC1
Ki [5]: > 593 nM
Ki [6]: > 591 nM
Ki [7]: > 590 nM
Ki [8]: > 595 nM
Ki [9]: > 592 nM
Ki [10]: > 590 nM
Ki [11]: 2.21 nM
Ki [12]: > 594 nM

c1ccc(CN2CCN(c3nc4ccsc4n4cccc34)CC2)cc1
Ki [13]: 1 nM

[11CH3]N1CCC(COC(=O)c2cc(Cl)c(N)c3c2OCCO3)CC1
SUVmax [14]: 28 kBq/cm3
Ki [15]: 0.3 nM

CNC(=O)c1ccc2c(c1)CCO[C@H]2CCN1CCN(c2ccc(C(N)=O)cc2)CC1
Ki [5]: > 18000 nM
Ki [16]: 6 nM

CN(C)[C@@H]1CCc2[nH]c3ccc(NC(=O)c4ccc(F)cc4)cc3c2C1
Ki [5]: > 500 nM
Ki [7]: > 500 nM
Ki [8]: > 500 nM
Ki [17]: 6 nM
Ki [9]: > 500 nM
Ki [10]: > 500 nM
Ki [12]: > 500 nM

COc1cccc(S(=O)(=O)N2CCC[C@@H]2CCN2CCC(C)CC2)c1
Ki [18]: 9.2 nM
Ki [19]: 18 nM
Ki [20]: 1.6 nM

COc1c(OCC[18F])cccc1[C@H](O)C1CCN(CCc2ccc(F)cc2)CC1
Ratio [21]: 2.7
Drug uptake [22]: 1.45

CN(C)CCOc1cccc2c1ccn2S(=O)(=O)c1ccc([18F])cc1
Ki [23]: 4 nM

COc1cc(CCNCc2ccccc2O[11CH3])c(OC)cc1Br
Drug uptake [24]: 0.62
Ki [25]: 0.5 nM
Ki [26]: 1.7 nM
SUV [27]: 0.8
